Experimental data published in patent US20070275925A1, “ASTHMA DIAGNOSIS AND THERAPY” (REGENTS OF THE UNIVERSITY OF CALIFORNIA, priority 2006, published 2007).

How the values were obtained:
[1] = Lung function (FEV1) in the clinical trial; assay type: in vivo, human; details: by one week, sustained at 4 weeks and 8 weeks; inhaled fluticasone 500 μg twice daily
Description: In three cross sectional studies and a clinical trial, epithelial brushings were collected by bronchoscopy from 42 subjects with asthma, 16 current smokers without asthma, and 28 healthy controls. Cross-sectional studies comprised 2 visits, the first for characterization and the second for bronchoscopy. The clinical trial was a 10 week, randomized, double-blind, placebo-controlled trial specifically designed to determine the effects of inhaled fluticasone (500 μg twice daily) on airway gene expression and to relate gene expression changes to improvements in lung function (FIG. 1). Bronchoscopy was performed at baseline and repeated 1 week after starting study drug. Thirty-five subjects had adequate baseline bronchoscopy and 32 had RNA available from epithelial brushings at both bronchoscopies. Lung function was measured at intervals over the 8-week treatment period. […] Spirometry was measured at baseline, before both bronchoscopies, at 4 and 8 weeks after starting study medication, and after the one week run-out according to American Thoracic Society criteria using a dry rolling-seal spirometer (Model VRS2000, PDS Instrumentation, S&M Instrument Co., Doylestown, Pa.). Methacholine responsiveness was measured at baseline and at 4 and 8 weeks after starting study medication using a five-breath dosimeter method (modified from Chai et al).^5

Periostin = Periostin immunohistochemistry in bronchial biopsies with design-based stereology; assay type: in vivo, human; details: one week of treatment with fluticasone
From the text: Periostin protein expression was confirmed by immunohistochemistry in bronchial biopsies from a subset of asthmatic and healthy control subjects. Periostin immunolocalized to the subepithelium in all subjects, and quantification confirmed increased expression in asthma (FIG. 3). The degree of immunostaining in asthmatics was not decreased by one week of treatment with fluticasone (FIG. 6, supplementary appendix). Paraffin-embedded sections were deparaffinized and re-hydrated to water. Next, all sections were incubated in 3% hydrogen peroxide/absolute methanol for 10 minutes to block endogenous peroxidase activity. […] Biopsies were formalin-fixed and paraffin-embedded and then analyzed using methods of tissue immunohistochemistry (described above) and design-based stereology.^6 First, the volume of immunohistochemical staining, the volume of submucosal tissue surveyed, and the surface area of the epithelial basal lamina surveyed were determined by point and intersection counting using an integrated microscope (Olympus; Albertslund, Denmark), video camera (JVC Digital Color, JVC A/S; Tatstrup, Denmark), automated microscope stage, and computer (Dell Optiplex GS270 PC running Computer-Assisted Stereology Toolbox [C.A.S.T.] […] Points overlying submucosal tissue that is immunostained and unstained were counted separately along with intersections of test lines with basal lamina. […]

SMILES: CCC(=O)O[C@]1(C(=O)SCF)[C@H](C)C[C@H]2[C@@H]3C[C@H](F)C4=CC(=O)C=C[C@]4(C)[C@@]3(F)[C@@H](O)C[C@@]21C [fluticasone, fluticasone propionate]
- Improvement in FEV1 versus placebo [1]: greater improvements in FEV1 than placebo
- Degree of periostin immunostaining in bronchial biopsies of asthmatics (Periostin): not decreased
